Experiments:
Assay type in all cases: cell-based
[1] = molecular target: T1, EGFR exon 20 ASV Ins V769_D770 (Ba/F3 cells) (Homo sapiens, UniProt P00533, INS769ASV); assay: Inhibitor activity on EGFR-dependent cell growth (CellTiter-Glo, 72 h), Ba/F3 EGFR exon 20 ASV Ins; conditions: read-out: BaF3 ASV IC50
T1 construct: expressed in transfected cells; host or cells: Ba/F3 (murine pro-B cells), retroviral transduction, puromycin selection, IL3-independent pool
Text: (§1) Example A. Inhibitor Activity on EGFR-Dependent Cell Growth
(§2) Cell lines are generated by transducing Ba/F3 cells with retroviruses containing vectors with EGFR WT, EGFR L858R, EGFR exon 19del, EGFR L858R/C797S, EGFR exon 20 NPG Ins D770_N771, EGFR exon 20 ASV Ins V769_D770, EGFR exon 20 SVD Ins D770_N771, or EGFR exon 20 FQEA Ins A763_V764 genes and a puromycin selection marker. Transduced cells are selected with puromycin for 7 days and are then be transferred into culture media without Interleukin 3 (IL3). EGFR WT cells are maintained with supplemental EGF. Surviving cells are confirmed to express EGFR by Western blot and maintained as a pool. The IC50 date were included in Table 6 and Table 7.
(§3) 1.1 Cells are harvested from flask into cell culture medium and the cell number counted.
(§4) 1.2 Cells are diluted with culture medium to the desired density and 40 μL of cell suspension is added into each well of 384-well cell culture plate and the seeding density is 800 (FQEA, exon 19del), 600 (WT, NPG, L858R/C797S), or 400 (ASV, SVD, L858R) cells/well.
(§5) 2 Compound Preparation and Treatment
(§6) 2.1 Test compounds are dissolved to 10 mM in a DMSO stock solution. 45 μL of stock solution is transferred to a 384 polypropylene plate (pp-plate). Perform 3-fold, 10-point dilution via transferring 15 μL compound into 30 μL DMSO using a TECAN (EVO200) liquid handler.
(§7) 2.2 Spin plates at room temperature at 1,000 RPM for 1 minute.
(§8) 2.3 Transfer 120 nL of diluted compound from compound source plate into the cell plate.
(§9) 2.4 After compound treatment for 72 hours, perform CTG detection for compound treatment plates as described in “Detection” section.
(§10) 3.1 Plates are removed from incubators and equilibrated at room temperature for 15 minutes.
(§11) 3.2 Thaw the CellTiter Glo reagents and allow to equilibrate to room temperature before the experiment.
(§12) 3.3 Add 40 μL of CellTiter-Glo reagent into each well (at 1:1 to culture medium). Then place the plates at room temperature for 30 min followed by reading on EnVision.
(§13) 4.1 Inhibition activity is calculated following the formula below:
(§14) % Inhibition=100×(LumHC−LumSample)/(LumHC−LumLC) • where HC is obtained from cells treated with 0.1% DMSO only; and LC is obtained from culture medium only.
(§15) 4.2 2. Calculate the IC50 by fitting the Curve using Xlfit (v5.3.1.3), equation 201.
(§16) Y=Bottom+(Top−Bottom)/(1+10^((Log IC50−X)*HillSlope))

[2] = molecular target: T2, EGFR exon 20 FQEA Ins A763_V764 (Ba/F3 cells) (Homo sapiens, UniProt P00533, INS763FQEA); assay: Inhibitor activity on EGFR-dependent cell growth (CellTiter-Glo, 72 h), Ba/F3 EGFR exon 20 FQEA Ins; conditions: read-out: BaF3 FQEA IC50
T2 construct: expressed in transfected cells; host or cells: Ba/F3 (murine pro-B cells), retroviral transduction, puromycin selection, IL3-independent pool
T2 sequence (P00533 with tags, fused parts or gaps INS763FQEA): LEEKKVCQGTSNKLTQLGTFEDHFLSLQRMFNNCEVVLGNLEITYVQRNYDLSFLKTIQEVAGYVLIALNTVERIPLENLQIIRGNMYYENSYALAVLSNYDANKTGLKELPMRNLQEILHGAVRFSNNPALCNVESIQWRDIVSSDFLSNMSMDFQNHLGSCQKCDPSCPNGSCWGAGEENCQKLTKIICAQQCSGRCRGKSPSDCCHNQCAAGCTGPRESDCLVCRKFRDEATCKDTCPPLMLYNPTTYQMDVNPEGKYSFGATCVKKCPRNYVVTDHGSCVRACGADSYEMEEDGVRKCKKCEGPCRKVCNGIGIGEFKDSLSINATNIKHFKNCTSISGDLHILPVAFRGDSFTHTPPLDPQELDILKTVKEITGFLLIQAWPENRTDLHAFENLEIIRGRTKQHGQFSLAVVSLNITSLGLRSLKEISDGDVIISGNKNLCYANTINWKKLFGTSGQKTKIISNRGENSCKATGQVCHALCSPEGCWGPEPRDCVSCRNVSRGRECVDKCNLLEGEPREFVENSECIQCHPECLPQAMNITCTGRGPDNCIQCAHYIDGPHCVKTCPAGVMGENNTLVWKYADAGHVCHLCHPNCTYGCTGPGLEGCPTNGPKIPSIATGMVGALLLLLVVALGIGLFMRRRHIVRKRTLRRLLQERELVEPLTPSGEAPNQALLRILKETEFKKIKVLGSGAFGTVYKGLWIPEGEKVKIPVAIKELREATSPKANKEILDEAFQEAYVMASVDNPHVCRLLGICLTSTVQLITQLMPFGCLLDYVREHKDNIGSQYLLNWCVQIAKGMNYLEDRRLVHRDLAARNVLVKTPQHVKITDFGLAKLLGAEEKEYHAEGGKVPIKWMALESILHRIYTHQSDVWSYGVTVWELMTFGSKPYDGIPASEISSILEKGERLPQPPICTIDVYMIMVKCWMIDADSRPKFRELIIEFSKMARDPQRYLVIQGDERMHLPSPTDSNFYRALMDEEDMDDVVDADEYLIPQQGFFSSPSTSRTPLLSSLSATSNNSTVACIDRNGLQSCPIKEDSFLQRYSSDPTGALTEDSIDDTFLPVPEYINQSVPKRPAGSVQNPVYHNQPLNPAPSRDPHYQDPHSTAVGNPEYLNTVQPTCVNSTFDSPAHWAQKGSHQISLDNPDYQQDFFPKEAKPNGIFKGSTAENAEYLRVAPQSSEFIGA
Text: as §1, §2, §3, §4, §5, §6, §7, §8, §9, §10, §11, §12, §13, §14, §15, §16

[3] = molecular target: T3, EGFR exon 20 SVD Ins D770_N771 (Ba/F3 cells) (Homo sapiens, UniProt P00533, INS770SVD); assay: Inhibitor activity on EGFR-dependent cell growth (CellTiter-Glo, 72 h), Ba/F3 EGFR exon 20 SVD Ins; conditions: read-out: BaF3 SVD IC50
T3 construct: expressed in transfected cells; host or cells: Ba/F3 (murine pro-B cells), retroviral transduction, puromycin selection, IL3-independent pool
T3 sequence (P00533 with tags, fused parts or gaps INS770SVD): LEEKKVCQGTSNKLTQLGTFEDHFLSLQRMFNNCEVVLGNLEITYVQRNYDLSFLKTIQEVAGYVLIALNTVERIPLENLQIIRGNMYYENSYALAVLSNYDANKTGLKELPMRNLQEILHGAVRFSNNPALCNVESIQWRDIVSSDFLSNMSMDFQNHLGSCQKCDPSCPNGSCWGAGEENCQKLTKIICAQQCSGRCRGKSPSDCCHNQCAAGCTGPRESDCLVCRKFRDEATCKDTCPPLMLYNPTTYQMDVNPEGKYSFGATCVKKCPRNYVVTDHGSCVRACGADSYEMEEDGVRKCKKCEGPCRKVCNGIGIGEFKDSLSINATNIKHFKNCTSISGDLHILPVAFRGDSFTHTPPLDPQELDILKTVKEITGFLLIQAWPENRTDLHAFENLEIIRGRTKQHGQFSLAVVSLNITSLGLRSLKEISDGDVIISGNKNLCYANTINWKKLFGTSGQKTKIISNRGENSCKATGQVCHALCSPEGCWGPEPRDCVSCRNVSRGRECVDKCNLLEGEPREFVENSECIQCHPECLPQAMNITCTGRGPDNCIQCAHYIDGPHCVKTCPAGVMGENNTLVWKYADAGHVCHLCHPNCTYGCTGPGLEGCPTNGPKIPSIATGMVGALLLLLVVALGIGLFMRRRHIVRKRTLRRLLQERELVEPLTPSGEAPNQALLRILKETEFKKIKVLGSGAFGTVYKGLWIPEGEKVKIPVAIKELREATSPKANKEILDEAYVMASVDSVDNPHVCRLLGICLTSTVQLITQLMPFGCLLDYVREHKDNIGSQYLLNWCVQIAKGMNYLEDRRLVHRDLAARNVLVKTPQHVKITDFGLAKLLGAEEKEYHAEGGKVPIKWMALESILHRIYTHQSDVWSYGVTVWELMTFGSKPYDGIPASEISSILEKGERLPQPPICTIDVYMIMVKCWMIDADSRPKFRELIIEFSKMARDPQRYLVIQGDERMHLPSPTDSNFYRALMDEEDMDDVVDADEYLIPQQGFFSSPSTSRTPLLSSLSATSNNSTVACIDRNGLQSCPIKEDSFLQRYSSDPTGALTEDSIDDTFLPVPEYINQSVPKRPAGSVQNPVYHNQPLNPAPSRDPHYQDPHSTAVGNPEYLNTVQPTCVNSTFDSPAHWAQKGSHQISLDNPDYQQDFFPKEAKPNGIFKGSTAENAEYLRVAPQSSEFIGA
Text: as §1, §2, §3, §4, §5, §6, §7, §8, §9, §10, §11, §12, §13, §14, §15, §16

[4] = molecular target: T4, EGFR WT (Ba/F3 cells) (Homo sapiens, UniProt P00533); assay: Inhibitor activity on EGFR-dependent cell growth (CellTiter-Glo, 72 h), Ba/F3 EGFR WT; conditions: read-out: BaF3 WT IC50
T4 construct: expressed in transfected cells; host or cells: Ba/F3 (murine pro-B cells), retroviral transduction, puromycin selection, maintained with EGF
T4 sequence (P00533 25-1210): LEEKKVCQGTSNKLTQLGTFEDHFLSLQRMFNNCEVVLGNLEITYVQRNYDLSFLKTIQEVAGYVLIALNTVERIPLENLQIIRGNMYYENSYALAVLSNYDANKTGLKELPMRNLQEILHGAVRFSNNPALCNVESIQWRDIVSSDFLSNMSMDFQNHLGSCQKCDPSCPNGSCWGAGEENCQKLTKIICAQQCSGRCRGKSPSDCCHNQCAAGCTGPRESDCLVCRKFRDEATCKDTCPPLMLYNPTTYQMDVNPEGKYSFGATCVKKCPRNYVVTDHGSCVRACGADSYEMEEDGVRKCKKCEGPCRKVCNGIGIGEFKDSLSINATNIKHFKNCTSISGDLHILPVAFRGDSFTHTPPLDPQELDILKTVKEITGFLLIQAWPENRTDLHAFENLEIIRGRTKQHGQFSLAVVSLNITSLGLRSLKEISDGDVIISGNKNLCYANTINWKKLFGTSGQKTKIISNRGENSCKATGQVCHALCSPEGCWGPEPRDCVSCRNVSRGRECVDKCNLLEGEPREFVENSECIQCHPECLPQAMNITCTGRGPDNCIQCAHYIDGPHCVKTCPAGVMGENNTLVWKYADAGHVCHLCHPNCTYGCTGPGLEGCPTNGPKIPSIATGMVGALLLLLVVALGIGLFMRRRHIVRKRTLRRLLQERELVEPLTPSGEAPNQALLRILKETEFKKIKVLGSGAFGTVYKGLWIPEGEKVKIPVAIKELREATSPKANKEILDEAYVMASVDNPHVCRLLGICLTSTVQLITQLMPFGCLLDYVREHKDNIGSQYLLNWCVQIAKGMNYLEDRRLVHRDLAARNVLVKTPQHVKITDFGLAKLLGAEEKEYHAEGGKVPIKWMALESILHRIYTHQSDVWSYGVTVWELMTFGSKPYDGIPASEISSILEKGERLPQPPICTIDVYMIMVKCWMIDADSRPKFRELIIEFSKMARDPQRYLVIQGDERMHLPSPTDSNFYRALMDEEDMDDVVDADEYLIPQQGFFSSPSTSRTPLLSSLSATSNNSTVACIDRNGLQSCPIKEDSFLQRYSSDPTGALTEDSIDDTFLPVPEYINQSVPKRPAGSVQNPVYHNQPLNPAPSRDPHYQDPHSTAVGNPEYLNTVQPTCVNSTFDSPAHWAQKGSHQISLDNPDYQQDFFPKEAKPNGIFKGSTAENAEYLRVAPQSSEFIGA
Text: as §1, §2, §3, §4, §5, §6, §7, §8, §9, §10, §11, §12, §13, §14, §15, §16

T1 sequence (P00533 with tags, fused parts or gaps INS769ASV): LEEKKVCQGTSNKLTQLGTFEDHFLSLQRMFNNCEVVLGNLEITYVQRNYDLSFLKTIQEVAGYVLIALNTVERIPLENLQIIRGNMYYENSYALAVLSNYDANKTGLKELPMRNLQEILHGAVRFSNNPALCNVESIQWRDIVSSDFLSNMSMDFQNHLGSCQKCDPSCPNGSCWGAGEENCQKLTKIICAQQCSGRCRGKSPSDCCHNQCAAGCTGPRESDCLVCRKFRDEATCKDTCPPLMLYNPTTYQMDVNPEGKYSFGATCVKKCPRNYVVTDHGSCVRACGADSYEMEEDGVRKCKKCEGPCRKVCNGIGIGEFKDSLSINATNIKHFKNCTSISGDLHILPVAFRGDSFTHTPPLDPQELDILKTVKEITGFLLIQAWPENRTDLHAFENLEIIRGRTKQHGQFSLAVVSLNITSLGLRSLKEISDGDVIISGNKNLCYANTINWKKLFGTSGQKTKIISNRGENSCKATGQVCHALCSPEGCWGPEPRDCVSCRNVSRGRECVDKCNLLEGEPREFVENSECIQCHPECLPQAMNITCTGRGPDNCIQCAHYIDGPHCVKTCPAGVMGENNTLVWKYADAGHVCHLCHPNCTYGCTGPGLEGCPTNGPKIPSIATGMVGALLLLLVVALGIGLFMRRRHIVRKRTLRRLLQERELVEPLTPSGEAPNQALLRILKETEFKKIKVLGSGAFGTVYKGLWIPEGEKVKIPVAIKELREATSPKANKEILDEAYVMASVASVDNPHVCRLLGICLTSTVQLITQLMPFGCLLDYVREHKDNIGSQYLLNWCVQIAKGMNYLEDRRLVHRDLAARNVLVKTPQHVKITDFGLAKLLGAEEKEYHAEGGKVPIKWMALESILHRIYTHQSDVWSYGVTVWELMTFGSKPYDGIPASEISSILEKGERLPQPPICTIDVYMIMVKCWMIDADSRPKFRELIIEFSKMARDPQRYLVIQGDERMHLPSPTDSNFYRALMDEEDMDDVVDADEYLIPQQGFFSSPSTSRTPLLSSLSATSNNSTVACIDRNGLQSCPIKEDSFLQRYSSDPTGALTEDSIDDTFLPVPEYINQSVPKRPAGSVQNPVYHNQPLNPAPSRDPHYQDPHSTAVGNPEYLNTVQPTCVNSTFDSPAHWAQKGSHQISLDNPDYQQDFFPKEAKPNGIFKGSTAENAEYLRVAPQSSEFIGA

Compound | IC50 [1] [nM] | IC50 [2] [nM] | IC50 [3] [nM] | IC50 [4] [nM]
COc1c(F)cccc1Nc1c(-c2ccnc3cnc(C(F)(F)F)nc23)[nH]c2c1C(=O)NCC2 [compound 417] | 100 to 1000 | 100 to 1000 | 100 to 1000 | > 1000
COCC[C@@H]1CNC(=O)c2c(Nc3cccc(Cl)c3OC)c(-c3ccncn3)n(C)c21 (single isomer, unassigned) [Compound 796] | > 1000 | > 1000 | > 1000 | > 1000
COc1c(Cl)cccc1Nc1c(-c2ccncc2F)[nH]c2c1C(=O)NC[C@H]2CCN(C)C [compound 486, (7R)-3-[(3-chloro-2-methoxyphenyl)amino]-7-[2-(dimethylamino)ethyl]-2-(3-fluoropyridin-4-yl)-1H,5H,6H,7H-pyrrolo[3,2-c]pyridin-4-one] | > 1000 | > 1000 | > 1000 | > 1000
COc1c(Cl)cccc1Nc1c(-c2ccnc3ccc(OC4CC4)nc23)[nH]c2c1C(=O)NC[C@H]2C [Compound 769, (R)-3-((3-chloro-2-methoxyphenyl)amino)-2-(6-cyclopropoxy-1,5-naphthyridin-4-yl)-7-methyl-1,5,6,7-tetrahydro-4H-pyrrolo[3,2-c]pyridin-4-one] | < 100 | < 100 | < 100 | < 100
COc1c(Cl)cccc1Nc1c(-c2ccncc2F)[nH]c2c1C(=O)NCC21CCOC1 (single isomer, unassigned) [Compound 782] | 100 to 1000 | 100 to 1000 | 100 to 1000 | > 1000
COc1c(F)cccc1Nc1c(-c2nnc3ccccn23)[nH]c2c1C(=O)NCC2 [compound 239] | > 1000 | > 1000 | > 1000 | > 1000
COc1c(F)cccc1Nc1c(-c2ccnc3cnc(OC4CC4)nc23)[nH]c2c1C(=O)NCC2 [compound 413] | < 100 | < 100 | < 100 | < 100
COc1ncc2nccc(-c3[nH]c4c(c3Nc3cccc(F)c3OC)C(=O)NCC43CC3)c2n1 [compound 379] | < 100 | < 100 | < 100 | 100 to 1000
COCC[C@H]1CNC(=O)c2c1[nH]c(-c1ccncn1)c2Nc1cccc(F)c1OC [Compound 447b] | 100 to 1000 | 100 to 1000 | 100 to 1000 | > 1000
COc1c(Cl)cccc1Nc1c(-c2ccnc3ccc(OC4COC4)nc23)[nH]c2c1C(=O)NCC21CC1 [Compound 777, 3′-[(3-chloro-2-methoxyphenyl)amino]-2′-[6-(oxetan-3-yloxy)-1,5-naphthyridin-4-yl]-5′,6′-dihydro-1′H-spiro[cyclopropane-1,7′-pyrrolo[3,2-c]pyridin]-4′-one] | < 100 | < 100 | < 100 | 100 to 1000
COc1ncc2nccc(-c3[nH]c4c(c3Nc3cccc(Cl)c3OC)C(=O)N[C@@H](C(F)(F)F)C4)c2n1 [Compound 507, (6R)-3-[(3-chloro-2-methoxyphenyl)amino]-2-{2-methoxypyrido[3,2-d]pyrimidin-8-yl}-6-(trifluoromethyl)-1H,5H,6H,7H-pyrrolo[3,2-c]pyridin-4-one] | < 100 | < 100 | < 100 | 100 to 1000
COc1c(Cl)cccc1Nc1c(-c2ccncc2F)[nH]c2c1C(=O)NC[C@@]21CCN(C(C)=O)C1 [compound 492] | > 1000 | > 1000 | > 1000 | > 1000
COc1c(Cl)cccc1Nc1c(-c2ccncc2F)[nH]c2c1C(=O)NC[C@@H]2CCN1CCOCC1 [compound 485, (7S)-3-[(3-chloro-2-methoxyphenyl)amino]-2-(3-fluoropyridin-4-yl)-7-[2-(morpholin-4-yl)ethyl]-1H,5H,6H,7H-pyrrolo[3,2-c]pyridin-4-one] | > 1000 | > 1000 | > 1000 | > 1000
COc1nc2c(-c3[nH]c4c(c3Nc3cccc(Cl)c3OC)C(=O)NCC4)ccnc2cc1F [compound 477, 3-[(3-chloro-2-methoxyphenyl)amino]-2-(7-fluoro-6-methoxy-1,5-naphthyridin-4-yl)-1H,5H,6H,7H-pyrrolo[3,2-c]pyridin-4-one] | < 100 | < 100 | < 100 | 100 to 1000
COc1ccc2nccc(-c3[nH]c4c(c3Nc3cccc(Cl)c3OC)C(=O)NCC43CCC3)c2n1 [Compound 760, 3′-((3-chloro-2-methoxyphenyl)amino)-2′-(6-methoxy-1,5-naphthyridin-4-yl)-5′,6′-dihydrospiro[cyclobutane-1,7′-pyrrolo[3,2-c]pyridin]-4′(1′H)-one] | < 100 | < 100 | < 100 | < 100
COc1c(Cl)cccc1Nc1c(-c2ccncc2F)[nH]c2c1C(=O)NC[C@H]2CC(N)=O [Compound 489] | 100 to 1000 | 100 to 1000 | 100 to 1000 | > 1000

Other lines, results leading:

IC50 [1] [nM] | IC50 [2] [nM] | IC50 [3] [nM] | IC50 [4] [nM] | Compound
< 100 | < 100 | < 100 | 100 to 1000 | COc1c(Cl)cccc1Nc1c(-c2ccnc3ccc(OCC4(F)CC4)nc23)[nH]c2c1C(=O)NCC2 [compound 759, 3-[(3-chloro-2-methoxyphenyl)amino]-2-[6-[(1-fluorocyclopropyl)methoxy]-1,5-naphthyridin-4-yl]-1H,5H,6H,7H-pyrrolo[3,2-c]pyridin-4-one]
100 to 1000 | < 100 | 100 to 1000 | 100 to 1000 | C=CC(=O)N1CC[C@]2(CNC(=O)c3c2[nH]c(-c2ccncc2F)c3Nc2cccc(Cl)c2OC)C1 [compound 520]
> 1000 | > 1000 | > 1000 | > 1000 | C=CC[C@H]1CNC(=O)c2c1[nH]c(-c1ccncc1F)c2Nc1cccc(Cl)c1OC [compound 811]
100 to 1000 | 100 to 1000 | 100 to 1000 | > 1000 | COc1c(Cl)cccc1Nc1c(-c2ccncc2F)[nH]c2c1C(=O)NC[C@@H]2CCF [compound 813]
100 to 1000 | 100 to 1000 | 100 to 1000 | > 1000 | COc1c(Cl)cccc1Nc1c(-c2ccncc2F)[nH]c2c1C(=O)NC[C@@]21CCN(S(C)(=O)=O)C1 [compound 493]
100 to 1000 | 100 to 1000 | 100 to 1000 | > 1000 | COCC[C@H]1CNC(=O)c2c1[nH]c(-c1ccncc1F)c2Nc1cccc(F)c1C [compound 824]
< 100 | < 100 | < 100 | < 100 | COc1c(Cl)cccc1Nc1c(-c2ccnc(Nc3cc(C)n(C)n3)n2)[nH]c2c1C(=O)NCC2 [compound 513, 3-[(3-chloro-2-methoxyphenyl)amino]-2-{2-[(1,5-dimethylpyrazl-3-yl)amino]pyrimidin-4-yl}-1H,5H,6H,7H-pyrrolo[3,2-c]pyridin-4-one]
> 1000 | > 1000 | > 1000 | > 1000 | COc1c(Cl)cccc1Nc1c(-c2ccnc(NC3CCOCC3)n2)[nH]c2c1C(=O)NCC2 [compound 708, 3-((3-chloro-2-methoxyphenyl)amino)-2-(2-((tetrahydro-2H-pyran-4-yl)amino)pyrimidin-4-yl)-1,5,6,7-tetrahydro-4H-pyrrolo[3,2-c]pyridin-4-one]
< 100 | 100 to 1000 | < 100 | 100 to 1000 | COc1c(Cl)cccc1Nc1c(-c2ccnc3ccc(OCCN4CCOCC4)nc23)[nH]c2c1C(=O)NCC2 [compound 504, 3-[(3-chloro-2-methoxyphenyl)amino]-2-{6-[2-(morpholin-4-yl)ethoxy]-1,5-naphthyridin-4-yl}-1H,5H,6H,7H-pyrrolo[3,2-c] pyridin-4-one]

— patent US20240101576A1, “HETEROCYCLIC INHIBITORS OF EGFR AND/OR HER2, FOR USE IN THE TREATMENT OF CANCER” (Scorpion Therapeutics, Inc., priority 2020, published 2024)
